Experimental data published in patent US12240854B2, “TRAF 6 inhibitors” (Helmholtz Zentrum München - Deutsches Forschungszentrum für …, priority 2018, dated 2025).
Entries after “also recorded” stand apart in the source; their conditions may differ.

Columns and labels:
cIAP1 = biological target: T1, cIAP1 (Homo sapiens, UniProt Q13490); assay: In vitro ubiquitination assay, cIAP1 ubiquitin ligase kit; type: biochemical; settings: K63 chain formation
T1 construct: purchased Boston Biochem
Description: (§1) For analysis of cIAP1, MDM2, TRIM63, RNF4, ITCH and E6AP mediated poly-ubiquitination, the respective ubiquitin ligase kit from Boston Biochem (K-102, K-260, K-200B, K-220, K-240 and K-270) was used. Here, reaction buffer, E1, E2 and E3 enzyme (and p53 substrate in case of MDM2) were mixed and pre-incubated with compound or DMSO for 5 minutes at room temperature before adding Mg^2+-ATP and mono-ubiquitin for reaction start. Ubiquitination was visualized by Western Blot analyses.

[1] = system: NF-κB target genes ICAM-1 and A20 in MEF cells; assay: mRNA expression (qRT-PCR) in MEF cells; type: cell-based, mouse
Description: (§2) For MEF cells, 1.2×10^5 cells per sample were seeded, treated with compound for 6 hours and stimulated with either IL-1β or TNFα for 60 minutes. Jurkat T-cells and primary mouse CD4^+ T-cells were seeded at 2×10^5 cells per sample, also treated with compound for 6 hours and stimulated with PMA/lonomycin for 3 hours. RNA was isolated according to the manufacturer's protocol of the Qiagen RNeasy Kit (MEF cells) or the STRATEC INVITRAP® SPIN UNIVERSAL RNA MINI KIT (Jurkat T-cells). The isolation of mRNA from […] white adipose tissue from DIO mice was performed using TRIzol® Reagent according to manufacturer's instruction. To clear the isolated RNA from genomic DNA, samples (up to 5 μg RNA) were treated with RQ1 RNase-Free DNaseI (Promega) as described in the technical manual. For the reverse transcription of RNA into cDNA, the DNaseI digested RNA samples were processed using the SuperScript III First Strand cDNA Synthesis System (Invitrogen/ThermoFisher Scientific) following the manufacturer's protocol. […] For quantification of cDNA in the samples, the LightCylcer480 (Roche) and the KAPA SYBR FAST qPCR Kit were used. For relative quantification, the ΔΔCp method first described by Pfaffl (Pfaffl, M. W., A new mathematical model for relative quantification in real-time RT-PCR. Nucleic Acids Res, 2001. 29(9): p. e45) was applied.

E6AP = biological target: T2, E6AP (Homo sapiens, UniProt Q05086); assay: In vitro ubiquitination assay, E6AP ubiquitin ligase kit; type: biochemical
T2 construct: purchased Boston Biochem
T2 sequence (Q05086 whole entry): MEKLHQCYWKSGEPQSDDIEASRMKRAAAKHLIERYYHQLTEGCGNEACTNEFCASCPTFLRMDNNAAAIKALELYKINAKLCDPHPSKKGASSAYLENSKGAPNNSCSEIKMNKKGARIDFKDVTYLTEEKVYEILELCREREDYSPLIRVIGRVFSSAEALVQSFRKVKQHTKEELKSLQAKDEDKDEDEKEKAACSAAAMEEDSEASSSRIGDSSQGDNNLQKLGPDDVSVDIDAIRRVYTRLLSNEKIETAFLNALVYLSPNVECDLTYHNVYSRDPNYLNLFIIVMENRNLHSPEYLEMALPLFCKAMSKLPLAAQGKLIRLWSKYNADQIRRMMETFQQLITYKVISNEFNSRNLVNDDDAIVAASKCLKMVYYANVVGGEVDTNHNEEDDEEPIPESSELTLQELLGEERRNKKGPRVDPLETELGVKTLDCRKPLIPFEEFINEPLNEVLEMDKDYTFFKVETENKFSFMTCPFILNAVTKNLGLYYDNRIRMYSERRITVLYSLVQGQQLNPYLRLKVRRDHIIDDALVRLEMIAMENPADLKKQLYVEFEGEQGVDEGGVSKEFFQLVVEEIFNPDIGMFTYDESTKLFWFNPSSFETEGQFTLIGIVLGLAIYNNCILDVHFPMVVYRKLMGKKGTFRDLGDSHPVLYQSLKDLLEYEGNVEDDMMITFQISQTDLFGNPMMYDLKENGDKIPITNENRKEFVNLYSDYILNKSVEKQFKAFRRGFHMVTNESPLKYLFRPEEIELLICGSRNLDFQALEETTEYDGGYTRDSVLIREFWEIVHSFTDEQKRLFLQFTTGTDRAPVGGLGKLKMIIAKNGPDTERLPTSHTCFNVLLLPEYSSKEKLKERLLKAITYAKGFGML
Description: as §1

hERG = biological target: T3, hERG (Homo sapiens, UniProt Q12809); assay: ADME: hERG predictor assay; type: in vitro ADME
T3 construct: Bienta Enamine Biology Services
T3 sequence (Q12809 whole entry): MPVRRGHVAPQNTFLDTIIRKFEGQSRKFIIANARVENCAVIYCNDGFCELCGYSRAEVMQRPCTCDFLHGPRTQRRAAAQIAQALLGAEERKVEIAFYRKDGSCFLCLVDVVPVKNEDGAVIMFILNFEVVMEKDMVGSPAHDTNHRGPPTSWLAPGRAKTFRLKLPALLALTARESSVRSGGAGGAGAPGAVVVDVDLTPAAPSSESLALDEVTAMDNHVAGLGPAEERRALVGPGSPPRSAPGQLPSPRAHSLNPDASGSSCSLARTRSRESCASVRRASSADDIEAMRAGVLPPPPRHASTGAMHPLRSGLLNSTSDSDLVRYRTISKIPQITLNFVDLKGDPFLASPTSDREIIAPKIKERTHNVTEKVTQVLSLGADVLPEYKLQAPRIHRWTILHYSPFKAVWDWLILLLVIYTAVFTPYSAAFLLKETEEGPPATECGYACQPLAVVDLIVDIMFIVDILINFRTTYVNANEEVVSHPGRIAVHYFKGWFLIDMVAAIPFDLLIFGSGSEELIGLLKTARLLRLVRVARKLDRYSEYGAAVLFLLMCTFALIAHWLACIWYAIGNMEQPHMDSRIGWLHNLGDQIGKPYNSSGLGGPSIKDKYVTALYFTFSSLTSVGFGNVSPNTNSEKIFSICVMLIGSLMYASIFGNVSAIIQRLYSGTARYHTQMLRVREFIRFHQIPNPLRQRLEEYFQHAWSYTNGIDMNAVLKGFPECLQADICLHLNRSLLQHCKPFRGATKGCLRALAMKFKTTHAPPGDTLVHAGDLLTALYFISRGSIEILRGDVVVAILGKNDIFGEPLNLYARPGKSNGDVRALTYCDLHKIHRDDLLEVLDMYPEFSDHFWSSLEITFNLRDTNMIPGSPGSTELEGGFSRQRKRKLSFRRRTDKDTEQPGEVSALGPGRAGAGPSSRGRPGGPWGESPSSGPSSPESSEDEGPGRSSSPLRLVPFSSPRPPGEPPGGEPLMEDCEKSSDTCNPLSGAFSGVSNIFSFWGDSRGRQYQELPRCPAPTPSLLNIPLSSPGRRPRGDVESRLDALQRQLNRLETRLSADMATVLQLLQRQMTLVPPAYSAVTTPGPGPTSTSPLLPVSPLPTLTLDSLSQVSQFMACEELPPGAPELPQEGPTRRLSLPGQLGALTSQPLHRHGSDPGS
Description: All ADME (plasma stability, plasma protein binding, microsomal stability, Log D, Caco-2 assay, CYP450 inhibition and hERG predictor assay) as well as pharmacokinetic studies (Tmax, Cmax, AUC0-240min, Mean Residence Time, Elimination half life, Elimination rate constant, Volume of Distribution and Clearance) of C25-140 (compound 3) were conducted by Bienta Enamine Biology Services of Bienta/Enamine Ltd.

[2] = system: primary murine CD4+ T-cells; assay: Primary mouse CD4+ T-cells, CD3/CD28 stimulation (qRT-PCR, ELISA); type: cell-based; settings: primary naive CD4+ T-cells
Description: as §2, with “Jurkat T-cells and primary mouse CD4^+ T-cells were seeded at 2×10^5 cells per sample, also treated with compound for 6 hours and stimulated with PMA/lonomycin for 3 hours.” left out, “manual.” for “manual. For the reverse transcription of RNA into cDNA, the DNaseI digested RNA samples were processed using the SuperScript III First Strand cDNA Synthesis System (Invitrogen/ThermoFisher Scientific) following the manufacturer's protocol.”, “applied. […]” for “applied.”
For measurement of cytokine secretion, 2×10^5 Jurkat T-cells or primary CD4^+ T-cells or human PBMCs per sample were seeded, treated with compound for 6 hours and stimulated as indicated. 20 hours after stimulation, supernatants were harvested and analyzed with the IL-2, IL-1β and TNFα Ready-Set-Go! […]

T1 sequence (Q13490 whole entry): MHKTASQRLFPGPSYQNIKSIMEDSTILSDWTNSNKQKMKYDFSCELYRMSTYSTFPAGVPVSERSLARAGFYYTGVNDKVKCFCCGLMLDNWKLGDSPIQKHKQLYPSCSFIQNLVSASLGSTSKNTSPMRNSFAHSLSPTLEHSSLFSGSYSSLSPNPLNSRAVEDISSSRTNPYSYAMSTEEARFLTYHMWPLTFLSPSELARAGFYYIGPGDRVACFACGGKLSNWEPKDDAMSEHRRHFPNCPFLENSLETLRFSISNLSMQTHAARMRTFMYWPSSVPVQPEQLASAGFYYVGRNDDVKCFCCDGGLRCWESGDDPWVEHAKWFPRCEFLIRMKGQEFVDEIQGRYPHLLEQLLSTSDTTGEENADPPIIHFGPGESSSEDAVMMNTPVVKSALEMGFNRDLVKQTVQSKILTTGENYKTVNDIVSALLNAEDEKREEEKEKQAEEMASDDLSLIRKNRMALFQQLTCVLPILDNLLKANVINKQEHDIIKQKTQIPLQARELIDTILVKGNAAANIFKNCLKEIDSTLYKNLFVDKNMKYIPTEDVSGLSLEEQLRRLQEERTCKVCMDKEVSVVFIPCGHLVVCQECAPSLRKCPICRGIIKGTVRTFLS

Cc1nn(-c2ccc3nnc(C)n3n2)c(C)c1CCC(=O)N1CCC(Cc2ccccc2)CC1 [Example C25-140, 1-(4-Benzylpiperidin-1-yl)-3-(3,5-dimethyl-1-(3-methyl-[1,2,4]-triazolo-[4,3-b]-pyridazin-6-yl)-1H-pyrazol-4-yl)-propan-1-one]
auto-ubiquitination of cIAP1 (cIAP1): indeed affected; also recorded: dose-dependently diminished | mRNA expression of target genes (ICAM-1 and A20) ([1]; IL-1β stimulation): diminished target gene expression; also recorded: impaired | mRNA expression of target genes (ICAM-1 and A20) ([1]; TNFα stimulation): also affects | S5A ubiquitination by E6AP (E6AP): not influenced; also recorded: not affected | hERG inhibition (hERG): does not very much inhibit hERG | IL-2 mRNA expression [2]: impaired | IL-2 protein secretion [2]: counteracted; also recorded: impaired
